From ChEMBL document CHEMBL1201862, “PubChem BioAssay data set” (2004)
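1) Cells in 96-well plates. 2) Compound, 48 h, 5 concentrations. 3) Linear interpolation between surrounding doses. 4) Unreached endpoint = highest concentration. GI50 marks 50% less growth.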 Active and inactive are the calls of the source. Cut-off read from the data, not from the text of the source: active = GI50 up to about 1.1 µM and inactive = higher.

Experiments:
Assay in all cases: NCI-60 cell line screen, 48 h
[1] = test system: EKVX
[2] = test system: HT-29
[3] = test system: U-251
[4] = test system: HCT-116
[5] = test system: SW-620
[6] = test system: UO-31
[7] = test system: UACC-257
[8] = test system: NCI-H522
[9] = test system: SN12C
[10] = test system: NCI-H226
[11] = test system: RPMI-8226
[12] = test system: NCI-H23
[13] = test system: MDA-N
[14] = test system: LOX IMVI
[15] = test system: CAKI-1
[16] = test system: SK-MEL-28
[17] = test system: MCF7
[18] = test system: MDA-MB-231
[19] = test system: ACHN
[20] = test system: CCRF-CEM

Measured: GI50

NCC(O)CN.Oc1c(Cl)c(Cl)c(Cl)c(Cl)c1Cl
inactive: [1] 14.8 µM | [2] 17.8 µM | [3] 18.8 µM | [4] 18.2 µM | [5] 25.2 µM | [6] 16.5 µM | [7] 21.2 µM | [8] 24.6 µM | [9] 20.3 µM | [10] 18 µM | [11] 22.8 µM | [12] 16.9 µM | [13] 24.4 µM | [14] 17.3 µM | [15] 31.1 µM | [16] 21.2 µM | [17] 32.9 µM | [18] 20.2 µM | [19] 18.3 µM

COc1ccc2c(=O)cc(-c3ccncc3)oc2c1OC
inactive: [1] 28.2 µM | [2] 28.6 µM | [3] 30.1 µM | [4] 24.2 µM | [5] 31.6 µM | [6] 19.7 µM | [7] 33 µM | [8] 24.6 µM | [9] 29.6 µM | [11] 32.2 µM | [12] 24.6 µM | [13] 29.2 µM | [14] 21 µM | [15] 36.1 µM | [16] 26.5 µM | [17] 35.7 µM | [18] 31.8 µM | [20] 29.1 µM | [19] 25.7 µM

CCOC(=O)CCc1c(C(=O)OCC)[nH]c(/C=C2/NC(=O)C(C)=C2CC)c1C
inactive: [2] 10.4 µM | [3] 11.2 µM | [4] 13.1 µM | [5] 23.2 µM | [6] 2 µM | [7] 10.1 µM | [8] 11.7 µM | [9] 16.9 µM | [10] 16.9 µM | [12] 2.24 µM | [13] 5.83 µM | [14] 8.18 µM | [15] 21.2 µM | [16] 13.7 µM | [17] 5 µM | [18] 13.6 µM | [19] 11.3 µM

CC1=C(c2ccc(C)cc2)NC(=S)C(C)C(c2ccc(C)cc2)=N1 (configuration not stated)
inactive: [1] 56.6 µM | [2] 65.6 µM | [3] > 100 µM | [4] 58.5 µM | [5] > 100 µM | [6] 40.5 µM | [7] 51.1 µM | [9] > 100 µM | [10] > 100 µM | [11] 40.6 µM | [12] 37 µM | [13] 83.9 µM | [14] 76.2 µM | [15] > 100 µM | [16] 47.1 µM | [17] 42 µM | [18] > 100 µM | [20] 27.2 µM | [19] 50.2 µM

CC1(C)CC(C#Cc2ccccc2)CC(C)(C)N1O
inactive: [1] 23.6 µM | [2] 14.2 µM | [3] 23.9 µM | [4] 20 µM | [5] 19.6 µM | [6] 12.2 µM | [7] 16.6 µM | [9] 15.1 µM | [10] 20.9 µM | [11] 5.18 µM | [12] 15.7 µM | [13] 15.8 µM | [14] 15.5 µM | [15] 20.6 µM | [16] 16.6 µM | [17] 16.5 µM | [18] 15.2 µM | [20] 39.8 µM | [19] 25.8 µM

O=C(CN1CCN(c2ccccc2)CC1)c1ccc2[nH]c(=O)oc2c1
inactive: [1] > 100 µM | [2] > 100 µM | [3] 35.6 µM | [4] > 100 µM | [5] > 100 µM | [7] > 100 µM | [9] > 100 µM | [10] > 100 µM | [11] > 100 µM | [12] > 100 µM | [13] > 100 µM | [14] > 100 µM | [15] > 100 µM | [16] > 100 µM | [17] > 100 µM | [18] 83.4 µM | [20] > 100 µM | [19] > 100 µM

COP(=O)(CC(=O)C1OC(OCc2ccccc2)C(OCc2ccccc2)C(OCc2ccccc2)C1OCc1ccccc1)OC (configuration not stated)
inactive: [1] 8.07 µM | [2] 6.19 µM | [3] 6.37 µM | [4] 5.11 µM | [5] 12.8 µM | [6] 2.94 µM | [7] 6.81 µM | [8] 9.51 µM | [9] 3 µM | [10] 4.91 µM | [12] 8.47 µM | [13] 4.27 µM | [14] 11 µM | [15] 4.7 µM | [16] 54 µM | [17] 4.74 µM | [18] 10.2 µM | [20] 4.76 µM | [19] 5.71 µM

c1csc(-c2cc(-c3cccs3)c(-c3cccs3)s2)c1
inactive: [1] 55.8 µM | [2] 39.3 µM | [3] 75.5 µM | [4] 40.9 µM | [5] > 100 µM | [6] > 100 µM | [7] 55.3 µM | [8] 69.3 µM | [9] > 100 µM | [10] > 100 µM | [12] 96.4 µM | [13] 32 µM | [15] > 100 µM | [16] 57.4 µM | [17] 18.5 µM | [18] 56.1 µM | [20] 35.6 µM | [19] > 100 µM

Cc1cc2[n-][n+]3ncc(-c4ccccc4)n3c2cc1[N+](=O)[O-]
inactive: [1] > 100 µM | [3] > 100 µM | [4] > 100 µM | [5] > 100 µM | [6] > 100 µM | [7] > 100 µM | [8] > 100 µM | [9] > 10 µM | [11] > 100 µM | [13] > 10 µM | [14] > 100 µM | [15] > 100 µM | [16] > 100 µM | [17] > 100 µM | [18] > 100 µM | [20] > 100 µM | [19] > 100 µM

CC(=O)OCC1OC(Nc2ccc3nc(C)n(-c4ccccc4)c(=O)c3c2)C(OC(C)=O)C(OC(C)=O)C1OC(C)=O (configuration not stated)
inactive: [1] > 50 µM | [2] > 50 µM | [3] > 50 µM | [4] > 50 µM | [5] > 50 µM | [6] > 50 µM | [7] > 50 µM | [8] > 50 µM | [9] > 50 µM | [10] > 50 µM | [11] 5.61 µM | [12] > 50 µM | [13] > 50 µM | [14] 42.8 µM | [15] > 50 µM | [16] > 50 µM | [17] > 50 µM | [18] > 50 µM | [19] > 50 µM

CCC1CCC2c3c([nH]c4ccccc34)C3C(=O)N(c4ccc(OC)cc4)C(=O)C3C2C1 (configuration not stated)
inactive: [1] 48.3 µM | [2] 42.3 µM | [3] 18.7 µM | [4] 20 µM | [5] 17.7 µM | [6] > 100 µM | [7] > 100 µM | [8] 77.6 µM | [9] 68.9 µM | [10] > 100 µM | [11] 55 µM | [12] > 100 µM | [13] 55.7 µM | [16] 63.8 µM | [17] 36.6 µM | [18] 49.7 µM | [20] 11.1 µM | [19] 39.8 µM

COc1ccc(CCN2C(=O)C(=O)C(C(=O)c3ccccc3)C2c2ccccc2)cc1OC (configuration not stated)
inactive: [1] > 100 µM | [2] > 100 µM | [3] > 100 µM | [4] > 100 µM | [5] > 100 µM | [6] > 100 µM | [7] > 100 µM | [8] > 100 µM | [9] 67.8 µM | [11] 51.2 µM | [12] > 100 µM | [13] > 100 µM | [14] 86.7 µM | [15] > 100 µM | [16] > 100 µM | [17] > 100 µM | [18] > 100 µM | [20] 56.5 µM | [19] > 100 µM

N#Cc1c(N)c(-c2ccc(Cl)cc2)c(F)c2ccccc12
inactive: [1] 7 µM | [2] 75.5 µM | [3] 96.4 µM | [4] > 100 µM | [5] > 100 µM | [6] 3.2 µM | [7] > 100 µM | [8] > 100 µM | [9] > 100 µM | [10] > 100 µM | [11] 6.65 µM | [12] > 100 µM | [13] > 100 µM | [14] 94.2 µM | [15] > 100 µM | [16] > 100 µM | [17] 6.49 µM | [18] 66.2 µM | [19] > 100 µM

COc1ccc2c(c1)N=C(N)n1c(nc3ccccc31)S2
inactive: [2] 3.96 µM | [3] 6.27 µM | [4] 3.65 µM | [5] 39.9 µM | [6] 12.2 µM | [7] 11.8 µM | [8] 12.2 µM | [9] 51.6 µM | [10] 45.8 µM | [11] 4.47 µM | [12] 10.4 µM | [13] 3.45 µM | [14] 15.9 µM | [16] 70.1 µM | [17] 10.9 µM | [18] 12.7 µM | [20] 2.99 µM | [19] 21.3 µM

BC(=O)NC(CC(C)C)C(=O)NC1c2ccsc2C(=O)C1O.CN(C)C (configuration not stated)
inactive: [1] > 100 µM | [2] > 100 µM | [3] > 100 µM | [4] > 100 µM | [5] > 100 µM | [6] > 100 µM | [7] > 100 µM | [8] > 100 µM | [9] > 100 µM | [10] > 100 µM | [11] > 100 µM | [12] > 100 µM | [13] > 100 µM | [14] > 100 µM | [16] > 100 µM | [17] > 100 µM | [18] > 100 µM | [20] > 100 µM | [19] > 100 µM
